Data on six compounds can be found in US6562785B1, “Method for overcoming bacterial antibiotic resistance” (priority 1999, dated 2003).

Assay [1] concerns Staphylococcus aureus (ATCC 29213) and Micrococcus luteus. Nature of the assay: Membrane potential by ratio of red to green DiOC2(3) fluorescence, flow cytometry. It counts as cell-based. How it is done: (§1) Flow cytometric studies were performed using a laboratory-built dual laser instrument optimized for bacterial analysis. DiOC2(3) was excited at 488 nm by a beam from an argon ion laser; its green fluorescence was detected through a 530 nm, 20 nm bandwidth bandpass filter, and its red fluorescence was detected through a 610 nm, 19 nm bandpass filter. TO-PRO-3™ was excited at 633 nm by a beam from a helium-neon laser, and its fluorescence was detected through a 695 nm long pass filter. Light scattered at small angles to the 488 nm beam (forward scatter) was used as the trigger signal. Sheath flow rate was 10 ml/min; sample analysis rate was kept below 1,000 events/second. The signal pulse amplitudes were captured by high-precision peak detectors, and digitized using an Analogic HSDAS-16 16-bit data acquisition system in a Pentium-class personal computer. Software was used to perform logarithmic conversion on all of the parameters, which were represented on a 256-channel, 4-decade logarithmic scale.
(§2) Staphylococcus aureus (ATCC 29213) and Micrococcus luteus were grown overnight in trypticase soy broth. Stock solutions of antibiotics were made according to Anhalt & Washington (1991)(Balows, A. et al, (eds) American Society for Microbiology, Washington, 1991, pp. 1199-200). Antibiotics were diluted to the appropriate concentration in 1 ml of Mueller-Hinton broth (Gibco, Gaithersburg, Md.), and filtered though a 0.22 μm filter (Gelman Sciences, Ann Arbor, Mich.). MIC was defined as the minimum concentration of antibiotic that caused no growth after 24 hours in Mueller-Hinton broth.
(§3) Bacteria were added to an antibiotic solution at a concentration of 5.5×10^5/ml and incubated for the appropriate amount of time at 37 degrees C. while shaking. At each time point, a […] aliquot was removed and 30 μM DiOC2(3) and 100 nM TO-PRO-3™ were added simultaneously. The bacteria were allowed to incubate with the dye for 4 minutes prior to flow cytometric analysis. A second […] aliquot was treated identically, except that CCCP (final concentration 15 μM) was added to electrically depolarize the bacteria (i.e., to reduce membrane potential to zero).
(§4) Membrane potential was determined as a ratio of red to green DiOC2(3) fluorescence, providing a cell size-independent measure of MP. To measure membrane permeability, 100 nM TO-PRO-3™ was used in conjunction with the MP dye, DiOC2(3). […] Cells killed by heat exposure (100 degrees C. for 10 minutes) were used as positive controls for TO-PRO-3™ staining.

The test system is the same in assay [2]. The assay is described as follows: Membrane permeability by TO-PRO-3 staining, flow cytometry. It counts as cell-based. The note with it: for bacteria stained by TO-PRO-3: 4 hours exposure to 4 μg/ml. How it is done:
as §1, §2, §3, §4
Effects of amoxicillin (MIC 2 μg/ml) were strongly concentration-dependent. […] Changes in permeability could be observed 45 minutes after antibiotic addition; however, the variance of the TO-PRO-3™ fluorescence distribution was quite large, due primarily to the large variance in size resulting from drug administration. The raw TO-PRO-3™ fluorescence data was corrected for size variation by calculating a quantity proportional to the logarithm of the ratio of TO-PRO-3™ fluorescence to green DiOC2(3) fluorescence, which is known to be proportional to size; the logarithm of green fluorescence was subtracted from the logarithm of TO-PRO-3™ fluorescence, and a constant was added to keep the values on scale. This allowed cells which had become permeable to TO-PRO-3™ to be visualized as a discrete population. Thus, when the size of the bacteria is altered by the permeabilizing agent, such as β-lactam antibiotics used at concentrations below MIC, correction for change in cell volume is important in making permeability measurements. […] Resumption of bacterial growth was coincident with this reversion to a TO-PRO-3™-impermeable state, which occurred after 3 hours in the presence of 0.25 μg/ml amoxicillin and after 4 hours in the presence of 0.5 μg/ml.
For orientation: Flow cytometry measures light scatter and fluorescence of single cells or particles in a stream.

For assay [3] the following is noted: even at high concentrations; cited from earlier work.
Assay [4] has as its system Staphylococcus aureus (ATCC 29213) and Micrococcus luteus. The assay is described as follows: Bacterial growth and size (bead-referenced counts, forward scatter, microscopy). It counts as cell-based. How it is done:
as §2
Bacteria were added to an antibiotic solution at a concentration of 5.5×10^5/ml and incubated for the appropriate amount of time at 37 degrees C. while shaking. […]
Bacteria were counted by adding […] sky blue beads (Spherotech, Libertyville, Ill.) to the cell suspension at a known concentration, determined by counting on a haemocytometer. […] Beads were diluted 1:100 into the bacterial sample and could be identified and counted based on their intense fluorescence (excitation at 633 nm; emission above 695 nm). The volume of sample analyzed in any given aliquot was calculated from the number of beads measured; dividing the number of bacteria by this volume yielded the concentration of bacteria in the aliquot.

In assay [5] the test system is gram negative organisms. The note with it: concentrations up to 10 times MIC; cited from earlier work.
Assay [6] concerns Staphylococcus aureus (ATCC 29213) and Micrococcus luteus. The assay is described as follows: MIC: minimum antibiotic concentration causing no growth after 24 hours in Mueller-Hinton broth. Type of assay: cell-based. As to conditions: ATCC29213. How it is done: Staphylococcus aureus (ATCC 29213) and Micrococcus luteus were grown overnight in trypticase soy broth. Stock solutions of antibiotics were made according to […] & Washington (1991)(Balows, A. et al, (eds) American Society for Microbiology, Washington, 1991, pp. 1199-200). Antibiotics were diluted to the appropriate concentration in 1 ml of Mueller-Hinton broth (Gibco, Gaithersburg, Md.), and filtered though a 0.22 μm filter (Gelman Sciences, Ann Arbor, Mich.). MIC was defined as the minimum concentration of antibiotic that caused no growth after 24 hours in Mueller-Hinton broth.

For orientation: MIC means the lowest concentration found to suppress growth. Lower therefore signals greater potency.

≈ marks a conversion by molar mass, not a printed value.

In the case of `[H]/N=C(/N)N[C@H]1[C@H](O)[C@@H](O)[C@H](O[C@@H]2O[C@@H](C)[C@](O)(C=O)[C@H]2O[C@@H]2O[C@@H](CO)[C@H](O)[C@@H](O)[C@@H]2NC)[C@@H](N/C(N)=N\[H])[C@@H]1O` [Streptomycin, streptomycin], in assay [1] (5 μg/ml, by 1 hour, remained reduced at 105 minutes and 4 hours), the “effect on MP” value was “reduced MP”. For the same compound, the “effect on MP after erythromycin preincubation” value in assay [1] (organisms preincubated with 1 mg/ml erythromycin for 30 minutes) is given as “abolished”. In addition, the permeability changes entry in assay [2] (5 μg/ml, 1 hour to 4 hours) was “No permeability changes were seen”.

On to `O=C(N[C@H](CO)[C@H](O)c1ccc([N+](=O)[O-])cc1)C(Cl)Cl` [chloramphenicol], for which the “changes in MP” value in assay [1] (4 μg/ml, after 4 hours) was “no changes”. Moreover, the “changes in permeability (Mortimer et al.)” value in assay [3] was “does not cause changes in permeability”. In addition, the bacterial growth result in assay [4] (4 μg/ml) was “completely prevented bacterial growth”. Further, the changes in permeability entry in assay [2] (4 μg/ml, after 4 hours) was “no changes”.

For gentamicin, the “changes in permeability to nucleic acid stains” value in assay [5] is “no”.

In assay [6], `CN(C)[C@@H]1C(O)=C(C(N)=O)C(=O)[C@@]2(O)C(O)=C3C(=O)c4c(O)cccc4[C@@](C)(O)[C@H]3C[C@@H]12` [Tetracycline, tetracycline] came in with a minimal inhibitory concentration (MIC) of 0.25 mg/L (≈ 0.563 µM). Also, in assay [1] (4 μg/ml, after 4 hours), the “MP reduced to” value was −50 mV. Further, in assay [2], the “bacteria stained by TO-PRO-3” value turned out to be 50%.

Compound `CC[C@H]1OC(=O)[C@H](C)[C@@H](O[C@H]2C[C@@](C)(OC)[C@@H](O)[C@H](C)O2)[C@H](C)[C@@H](O[C@@H]2O[C@H](C)C[C@H](N(C)C)[C@H]2O)[C@](C)(O)C[C@@H](C)C(=O)[C@H](C)[C@@H](O)[C@]1(C)O` [erythromycin] gave an MIC in assay [6] of 4 mg/L (≈ 5.45 µM). For the same compound, the “MP reduced to” value in assay [1] (4 μg/ml, after 4 hours) is −50 mV. Besides, the depolarization entry in assay [1] (dependence on concentration and time) is “concentration- and time-dependent depolarizations”. Also, the “bacteria stained by TO-PRO-3” value in assay [2] came to 20%. Besides, the permeability changes entry in assay [2] (concentrations below 1 μg/ml) is listed as “did not cause any permeability changes”.

`CC1(C)S[C@@H]2[C@H](NC(=O)[C@H](N)c3ccc(O)cc3)C(=O)N2[C@H]1C(=O)O` [amoxicillin] returned an MIC in assay [6] of 2 mg/L (≈ 5.47 µM). In addition, in assay [1] (concentrations above MIC), the “dominant characteristic of treated cells (MP)” value was “loss of MP”. The bacterial size result in assay [4] (concentrations below MIC, microscopy and forward scatter) was “drastically increased in size”. The “time to reversion to TO-PRO-3-impermeable state, coincident with resumption of bacterial growth” value in assay [2] (0.25 μg/ml) was 3 h; in assay [2] (0.5 μg/ml), 4 h. The “percentage of cells permeable to TO-PRO-3, 4 μg/ml compared with 1 μg/ml” value in assay [2] (4 μg/ml versus 1 μg/ml) is recorded as “lower percentages of cells permeable to TO-PRO-3™”. In assay [2] (0.25 or 0.5 μg/ml, after four hours), the “membrane integrity after four hours” value is reported as “the majority of the cells regained their membrane integrity”. For the same compound, in assay [2] (after 2 hours at either 0.25 or 0.5 μg/ml), the “TO-PRO-3 permeable population and its MP” value is recorded as “a population that was permeable to TO-PRO-3™, but that maintained a normal MP, was detected”. Besides, the “time after antibiotic addition at which changes in permeability could be observed” value in assay [2] (concentrations below MIC) worked out at 45 min.
